Experiment: Metabolic stability in pooled human liver microsomes (half-life)
Type: in vitro ADME
Conditions: 37° C., 1 μM test compound
Experimental: The metabolic stability of the compounds according to the invention may be investigated as follows:
The metabolic degradation of the test compound is assayed at 37° C. with pooled human liver microsomes. The final incubation volume of 100 μl per time point contains TRIS buffer pH 7.6 at room temperature (0.1 M), magnesium chloride (5 mM), microsomal protein (1 mg/mL) and the test compound at a final concentration of 1 μM. Following a short preincubation period at 37° C., the reactions are initiated by addition of beta-nicotinamide adenine dinucleotide phosphate, reduced form (NADPH, 1 mM), and terminated by transferring an aliquot into solvent after different time points. After centrifugation (10000 g, 5 min), an aliquot of the supernatant is assayed by LC-MS/MS for the amount of parent compound. The half-life is determined by the slope of the semi-logarithmic plot of the concentration-time profile.

Half-life t1/2, >2.17 h:
CCc1ccccc1OCC(C)(C)NC(=O)[C@H]1[C@@H]2CNC[C@@H]21.Cl [Example 39], Cc1cc(C2CC2)ccc1OCC(C)(C)NC(=O)[C@H]1[C@@H]2CNC[C@@H]21 [Example 65], Cc1cccc2c(C(C)(C)NC(=O)[C@H]3[C@@H]4CNC[C@@H]43)n[nH]c12 [Example 93], CC(C)(NC(=O)[C@H]1[C@@H]2CNC[C@@H]21)c1n[nH]c2ccccc12 [Example 94], CC(C)(NC(=O)[C@H]1[C@@H]2CNC[C@@H]21)c1n[nH]c2c(C(F)(F)F)cccc12 [Example 110]
